Values quoted from earlier work as cited in US20050129759A1, “Sustained release compositions and controlled delivery method” (priority 2003, published 2005).

Conditions: not entrapped; stated as typical behaviour

With `NC(N)=O.OO` [urea peroxide] as the compound, how does the “stability of free active agent” value read?
Its value is “very unstable, shock sensitive, and deteriorates very quickly on contact with air humidity”.
